{"source": "patent US20260216176A1", "about": "“USE OF PCLX-001 OR PCLX-002 AS A RADIOSENSITIZER” (ACYLEX PHARMACEUTICALS INC., priority 2023, published 2026)", "test": "Plasma pharmacokinetics in phase I clinical trial NCT04836195 (oral daily dose)", "assay_type": "in vivo, human", "conditions": "for AUC(0-t) / Cmax / Tmax / half-life: human, plasma; for AUC(0-t): read-out: AUC0-24 (mean, SD); for Cmax: read-out: Cmax (mean, SD)", "procedure": "A phase I, multicenter, nonrandomized, open-label study of zelenirstat, entitled “Phase I Trial of PCLX-001 in B-cell Non-Hodgkin Lymphoma and Advanced Solid Malignancies” (reference 6), is being conducted and is registered at clinicaltrials.gov as NCT04836195. In this study, PCLX-001 was administered as an oral daily dose every morning to patients with advanced cancer, on 28-day cycles, until toxicity or progressive disease. Peripheral blood samples were collected over six time points in the first 8 hours of cycle 1 day 1, and again on cycle 1 day 15, with pretreatment day 1 levels obtained with every subsequent cycle. PCLX-001/zelenirstat plasma concentrations were quantified using a validated ultra-performance liquid chromatography with tandem mass spectrometry detection and analyzed using a nonlinear mixed-effects model.", "key": {"[1]": {"conditions": "oral, 20 mg, 20 mg, Cycle 1 D15"}, "[2]": {"conditions": "oral, 40 mg, 40 mg, Cycle 1 D15"}, "[3]": {"conditions": "oral, 70 mg, 70 mg, Cycle 1 D15"}, "[4]": {"conditions": "oral, 100 mg, 100 mg, Cycle 1 D1"}, "[5]": {"conditions": "oral, 100 mg, 100 mg, Cycle 1 D15"}, "[6]": {"conditions": "oral, 140 mg, 140 mg, Cycle 1 D1"}, "[7]": {"conditions": "oral, 140 mg, 140 mg, Cycle 1 D15"}, "[8]": {"conditions": "oral, 210 mg, 210 mg, Cycle 1 D1"}, "[9]": {"conditions": "oral, 210 mg, 210 mg, Cycle 1 D15"}}, "note": "Like-named read-outs stand apart in the source and are kept apart here.", "data": [{"smiles": "Cc1c(N[S+](=O)(O)c2c(Cl)cc(-c3ccnc(N4CCNCC4)c3)cc2Cl)c(CC(C)C)nn1C", "note": "[PCLX-001]", "values": [{"measurement": "AUC(0-t)", "setting": "oral, 20 mg, 20 mg, Cycle 1 D1", "value": 1580, "unit": "ng·h/mL"}, {"measurement": "Cmax", "setting": "oral, 20 mg, 20 mg, Cycle 1 D1", "value": 276, "unit": "ng/mL"}, {"measurement": "Tmax", "setting": "oral, 20 mg, 20 mg, Cycle 1 D1, read-out: Tmax (median, range)", "value": 2, "unit": "h"}, {"measurement": "half-life", "setting": "oral, 20 mg, 20 mg, Cycle 1 D1, read-out: t½ (mean, SD) (converted)", "value": 6.7, "unit": "h"}, {"measurement": "AUC(0-t)", "setting": "[1]", "value": 2070, "unit": "ng·h/mL"}, {"measurement": "Cmax", "setting": "[1]", "value": 359, "unit": "ng/mL"}, {"measurement": "Tmax", "setting": "oral, 20 mg, 20 mg, Cycle 1 D15, read-out: Tmax (median, range)", "value": 1, "unit": "h"}, {"measurement": "half-life", "setting": "oral, 20 mg, 20 mg, Cycle 1 D15, read-out: t½ (mean, SD) (converted)", "value": 7.4, "unit": "h"}, {"measurement": "AUC(0-t)", "setting": "oral, 40 mg, 40 mg, Cycle 1 D1", "value": 4820, "unit": "ng·h/mL"}, {"measurement": "Cmax", "setting": "oral, 40 mg, 40 mg, Cycle 1 D1", "value": 848, "unit": "ng/mL"}, {"measurement": "Tmax", "setting": "oral, 40 mg, 40 mg, Cycle 1 D1, read-out: Tmax (median, range)", "value": 0.9, "unit": "h"}, {"measurement": "half-life", "setting": "oral, 40 mg, 40 mg, Cycle 1 D1, read-out: t½ (mean, SD) (converted)", "value": 9.2, "unit": "h"}, {"measurement": "AUC(0-t)", "setting": "[2]", "value": 7060, "unit": "ng·h/mL"}, {"measurement": "Cmax", "setting": "[2]", "value": 774, "unit": "ng/mL"}, {"measurement": "Tmax", "setting": "oral, 40 mg, 40 mg, Cycle 1 D15, read-out: Tmax (median, range)", "value": 2.2, "unit": "h"}, {"measurement": "half-life", "setting": "oral, 40 mg, 40 mg, Cycle 1 D15, read-out: t½ (mean, SD) (converted)", "value": 9.7, "unit": "h"}, {"measurement": "AUC(0-t)", "setting": "oral, 70 mg, 70 mg, Cycle 1 D1", "value": 5650, "unit": "ng·h/mL"}, {"measurement": "Cmax", "setting": "oral, 70 mg, 70 mg, Cycle 1 D1", "value": 665, "unit": "ng/mL"}, {"measurement": "Tmax", "setting": "oral, 70 mg, 70 mg, Cycle 1 D1, read-out: Tmax (median, range)", "value": 3.9, "unit": "h"}, {"measurement": "half-life", "setting": "oral, 70 mg, 70 mg, Cycle 1 D1, read-out: t½ (mean, SD) (converted)", "value": 9.5, "unit": "h"}, {"measurement": "AUC(0-t)", "setting": "[3]", "value": 6610, "unit": "ng·h/mL"}, {"measurement": "Cmax", "setting": "[3]", "value": 467, "unit": "ng/mL"}, {"measurement": "Tmax", "setting": "oral, 70 mg, 70 mg, Cycle 1 D15, read-out: Tmax (median, range)", "value": 4.1, "unit": "h"}, {"measurement": "AUC(0-t)", "setting": "[4]", "value": 18900, "unit": "ng·h/mL"}, {"measurement": "Cmax", "setting": "[4]", "value": 2190, "unit": "ng/mL"}, {"measurement": "Tmax", "setting": "oral, 100 mg, 100 mg, Cycle 1 D1, read-out: Tmax (median, range)", "value": 2, "unit": "h"}, {"measurement": "half-life", "setting": "oral, 100 mg, 100 mg, Cycle 1 D1, read-out: t½ (mean, SD) (converted)", "value": 8, "unit": "h"}, {"measurement": "AUC(0-t)", "setting": "[5]", "value": 24700, "unit": "ng·h/mL"}, {"measurement": "Cmax", "setting": "[5]", "value": 2300, "unit": "ng/mL"}, {"measurement": "Tmax", "setting": "oral, 100 mg, 100 mg, Cycle 1 D15, read-out: Tmax (median, range)", "value": 4, "unit": "h"}, {"measurement": "half-life", "setting": "oral, 100 mg, 100 mg, Cycle 1 D15, read-out: t½ (mean, SD) (converted)", "value": 12, "unit": "h"}, {"measurement": "AUC(0-t)", "setting": "[6]", "value": 11900, "unit": "ng·h/mL"}, {"measurement": "Cmax", "setting": "[6]", "value": 1770, "unit": "ng/mL"}, {"measurement": "Tmax", "setting": "oral, 140 mg, 140 mg, Cycle 1 D1, read-out: Tmax (median, range)", "value": 1, "unit": "h"}, {"measurement": "half-life", "setting": "oral, 140 mg, 140 mg, Cycle 1 D1, read-out: t½ (mean, SD) (converted)", "value": 7.2, "unit": "h"}, {"measurement": "AUC(0-t)", "setting": "[7]", "value": 8150, "unit": "ng·h/mL"}, {"measurement": "Cmax", "setting": "[7]", "value": 1340, "unit": "ng/mL"}, {"measurement": "Tmax", "setting": "oral, 140 mg, 140 mg, Cycle 1 D15, read-out: Tmax (median, range)", "value": 2, "unit": "h"}, {"measurement": "half-life", "setting": "oral, 140 mg, 140 mg, Cycle 1 D15, read-out: t½ (mean, SD) (converted)", "value": 10.4, "unit": "h"}, {"measurement": "AUC(0-t)", "setting": "[8]", "value": 14700, "unit": "ng·h/mL"}, {"measurement": "Cmax", "setting": "[8]", "value": 1770, "unit": "ng/mL"}, {"measurement": "Tmax", "setting": "oral, 210 mg, 210 mg, Cycle 1 D1, read-out: Tmax (median, range)", "value": 3, "unit": "h"}, {"measurement": "half-life", "setting": "oral, 210 mg, 210 mg, Cycle 1 D1, read-out: t½ (mean, SD) (converted)", "value": 7.8, "unit": "h"}, {"measurement": "AUC(0-t)", "setting": "[9]", "value": 27600, "unit": "ng·h/mL"}, {"measurement": "Cmax", "setting": "[9]", "value": 2940, "unit": "ng/mL"}, {"measurement": "Tmax", "setting": "oral, 210 mg, 210 mg, Cycle 1 D15, read-out: Tmax (median, range)", "value": 2, "unit": "h"}, {"measurement": "half-life", "setting": "oral, 210 mg, 210 mg, Cycle 1 D15, read-out: t½ (mean, SD) (converted)", "value": 7.7, "unit": "h"}, {"measurement": "Tmax", "setting": "oral, patients taking proton pump inhibitors (PPI), read-out: maximum Tmax value observed", "value": "~8", "unit": "h"}, {"measurement": "Tmax", "setting": "oral, patients taking proton pump inhibitors (PPI), read-out: median Tmax range", "value": "1 to 6", "unit": "h"}, {"measurement": "half-life", "setting": "oral, C1D1, read-out: mean terminal half-life across the dose cohorts", "value": "6.7 to 9.5", "unit": "h"}, {"measurement": "Tmax", "setting": "po, single oral 20 mg to 210 mg, C1D1, read-out: median Tmax values across the dose cohorts", "value": "1 to 4", "unit": "h"}, {"measurement": "accumulation following repeated administration", "setting": "majority of patients, 14 days", "value": "< 2", "unit": "fold"}, {"measurement": "accumulation beyond Day 15", "setting": "pre-dose concentrations over multiple cycles", "value": "no accumulation was apparent"}]}]}
